From US20040058056A1, “Drug diffusion coatings, applications and methods” (priority 2003, published 2004)

Key:
Type in all cases: physicochemical
[1] = Elution of NPC-15199 from PHEMA-coated stainless steel coupons with TMCTS plasma membrane; conditions: buffered saline pH 7.4, room temperature
Description: N-(9-fluorenylmethoxycarbonyl)-L-leucine (NPC-15199), an anti-inflammatory drug, was coated on a stainless steel coupon by dip-coating the coupon in a mixture of 20 mM NPC-15199 in a 60:40 solution of acetone:water containing 7.5% poly(2-hydroxyethyl methacrylate) (“PHEMA”). The coupon was then air dried for about 5 minutes at approximately 60° C. TMCTS plasma was deposited on different NPC-15199 coated coupons for 20, 40, 60 and 80 seconds, respectively. […] at pH 7.4 at room temperature. Elution of NPC-15199 was measured by change in absorbance using a spectrophotometer.
The plasma was generated at 83 W and 55 mTorr with a mass flow rate of 84 sccm; under these conditions a micro-thin siloxane membrane is deposited on the targeted surface, with the thickness directly related to the length of time of plasma deposition.

[2] = Elution of daunomycin from PHEMA-coated stainless steel coupons with TMCTS plasma membrane; conditions: buffered saline pH 7.4; absorbance at 480 nm; different TMCTS plasma deposition times
Description: Before drug application and plasma coating to 0.71 cm×0.71 cm 316 stainless steel coupon surfaces, all the coupons were cleaned with Acationox detergent, rinsed exhaustively with water, and air-dried. The coupons were then dip-coated in 80% ethanol containing 5% PHEMA and 5 mg/ml of daunomycin. After dipping, the coupons were wicked to remove excess solution, and air-dried under a gentle flow of warm air. Thereafter, the coated coupons were stored in the dark. The drug-coated coupons were then plasma-deposited with TMCTS for varying amounts of time. The plasma was generated at 83 W and 55 mTorr with a mass flow rate of 84 sccm of TMCTS monomer vapor. The coating thickness could be precisely controlled by plasma deposition time, with a coating thickness in the range of 5 to 200 nm.
The coupons were eluted in buffered saline at pH 7.4. The eluted drug was measured spectrophotometrically at 480 nm for daunomycin. The absorbance change was proportional to the concentration of daunomycin.

[3] = Elution of rapamycin from TMCTS plasma-coated stainless steel coupons in porcine serum
Description: The elution time of rapamycin from the surface of stainless steel coupons was evaluated as a function of plasma deposition time. One side of stainless steel coupons was coated with 100±10 μg of rapamycin dissolved in chloroform (0.2%, w/v). After air drying at room temperature, the coated surfaces were plasma coated with TMCTS. The plasma was generated at 83 W and 55 mTorr with a mass flow rate of 84 sccm at various time lengths between 30 and 300 seconds. The coated coupons were extracted with porcine serum mixed with 0.02% NaN3 as the preservative at 37° C. The remaining amounts of the drug on the coupon was extracted with 2 ml of methanol for 2 hours at room temperature and assayed by HPLC at 277 nm, utilizing an HPLC system calibrated with known amounts of rapamycin.

CC(C)C[C@H](NC(=O)OCC1c2ccccc2-c2ccccc21)C(=O)O [NPC-15199, N-(9-fluorenylmethoxycarbonyl)-L-leucine]
T1/2 (half-elution time) ([1]; TMCTS plasma deposition time 20 seconds): 0.833 min | T1/2 (half-elution time) ([1]; TMCTS plasma deposition time 40 seconds): 1.67 min | T1/2 (half-elution time) ([1]; TMCTS plasma deposition time 60 seconds): 2.5 min | T1/2 (half-elution time) ([1]; TMCTS plasma deposition time 80 seconds): 4 min

COc1cccc2c1C(=O)c1c(O)c3c(c(O)c1C2=O)C[C@@](O)(C(C)=O)C[C@@H]3O[C@H]1C[C@H](N)[C@H](O)[C@H](C)O1 [daunomycin]
drug diffusion time [2]: controlled by the TMCTS coating thickness

CO[C@H]1C[C@@H]2CC[C@@H](C)[C@@](O)(O2)C(=O)C(=O)N2CCCC[C@H]2C(=O)O[C@H]([C@H](C)C[C@@H]2CC[C@@H](O)[C@H](OC)C2)CC(=O)[C@H](C)/C=C(\C)[C@@H](O)[C@@H](OC)C(=O)[C@H](C)C[C@H](C)/C=C/C=C/C=C/1C [rapamycin]
% Remaining ([3]; 0 (uncoated) TMCTS deposition, elution time 0 hours): 100% | % Remaining ([3]; 0 (uncoated) TMCTS deposition, elution time 17 hours, porcine serum 37° C.): 0% | % Remaining ([3]; TMCTS deposition 30 seconds, elution time 64 hours, porcine serum 37° C.): 2.6% | Estimated Half-Life ([3]; TMCTS deposition 30 seconds, porcine serum 37° C.): 12 h | % Remaining ([3]; TMCTS deposition 60 seconds, elution time 64 hours, porcine serum 37° C.): 33.2% | Estimated Half-Life ([3]; TMCTS deposition 60 seconds, porcine serum 37° C.): 41 h | % Remaining ([3]; TMCTS deposition 120 seconds, elution time 47.5 hours, porcine serum 37° C.): 67.7% | Estimated Half-Life ([3]; TMCTS deposition 120 seconds, porcine serum 37° C.): 84 h | % Remaining ([3]; TMCTS deposition 180 seconds, elution time 24 hours, porcine serum 37° C.): 76.3% | Estimated Half-Life ([3]; TMCTS deposition 180 seconds, porcine serum 37° C.): 94 h | % Remaining ([3]; TMCTS deposition 240 seconds, elution time 24 hours, porcine serum 37° C.): 93.6% | Estimated Half-Life ([3]; TMCTS deposition 240 seconds, porcine serum 37° C.): 211 h | % Remaining ([3]; TMCTS deposition 300 seconds, elution time 47.5 hours, porcine serum 37° C.): 91.9% | Estimated Half-Life ([3]; TMCTS deposition 300 seconds, porcine serum 37° C.): 360 h
